According to patent publication US9333214B2 (priority 2007, dated 2016):

Legend:
P. aeruginosa = assay: Amikacin susceptibility testing (MIC) of P. aeruginosa sputum isolates; type: cell-based; settings: for MIC: Pseudomonas aeruginosa
Description: Quantitative culture of sputum samples and subsequent amikacin susceptibility testing of each morphologically distinct P. aeruginosa were performed. The MIC of amikacin for the isolates with the highest MIC cultured from each subject at screening and Day 14 was documented. The density (CFU per gram of sputum) of P. aeruginosa in sputum was calculated as the log10 value for the sum of all morphotypes.

[1] = test system: P. aeruginosa strain (mucoid strain 3064); assay: Rat model of chronic pulmonary infection with Pseudomonas (agar beads); type: in vivo, rats
[2] = rat, in vivo
[3] = Preclinical pharmacokinetics after inhalation in rats; settings: equal dose by inhalation

| MIC (P. aeruginosa; 0 h, Study 1, baseline (Day 0)) [µg/mL] | MIC (P. aeruginosa; 336 h, Study 1, Day 14) [µg/mL] | MIC (P. aeruginosa; Study 2, baseline) [µg/mL] | mean MIC of amikacin for P. aeruginosa isolates (P. aeruginosa; Study 1, baseline (Day 0)) [µg/mL] | SMILES | bacteria in lungs ([1]; 60 mg/kg (given twice per day) daily for 28 days) | bacterial density (log10CFU/lung) vs saline control ([1]; BID for 14 days, 30 mg/kg per dose) | time to undetectable lung levels after cessation of administration [2] [h] | AUC of drug in the kidneys vs Liposomal Amikacin aerosol [3] |
| --- | --- | --- | --- | --- | --- | --- | --- | --- |
| 8 | 30.8 | 41 | 8.04 | NCC[C@H](O)C(=O)N[C@@H]1C[C@H](N)[C@@H](O[C@H]2O[C@H](CN)[C@@H](O)[C@H](O)[C@H]2O)[C@H](O)[C@H]1O[C@H]1O[C@H](CO)[C@@H](O)[C@H](N)[C@H]1O [amikacin] |  |  |  |  |
|  |  |  |  | NC[C@H]1O[C@H](O[C@H]2[C@H](O)[C@@H](O[C@H]3O[C@H](CO)[C@@H](O)[C@H](N)[C@H]3O)[C@H](N)C[C@@H]2N)[C@H](N)C[C@@H]1O [tobramycin] | below the limit of detection | significant reduction | ≤ 6 | significantly higher |
